Data: patent US10058094B2, “Antimicrobial sanitizer compositions and methods of making the same” (priority 2013, dated 2018)

Columns and labels:
[1] = system: Salmonella typhi ATCC 6539; test: Chlorine equivalence test; assay type: cell-based; parameters: key to growth of organism, Subculture Series 8 / growth of organism, Subculture Series 9 / growth of organism, Subculture Series 10 / growth of organism, Subculture Series 1 / growth of organism, Subculture Series 2 / growth of organism, Subculture Series 3 / growth of organism, Subculture Series 4 / growth of organism, Subculture Series 5 / growth of organism, Subculture Series 6 / growth of organism, Subculture Series 7: growth of organism (+); no growth of organism (0); conditions: for growth of organism, Subculture Series 1 / growth of organism, Subculture Series 2 / growth of organism, Subculture Series 3 / growth of organism, Subculture Series 4 / growth of organism, Subculture Series 5 / growth of organism, Subculture Series 6 / growth of organism, Subculture Series 7 / growth of organism, Subculture Series 8 / growth of organism, Subculture Series 9 / growth of organism, Subculture Series 10: Salmonella typhi
Procedure: (§1) The Table 1 sanitizer was tested to determine its efficiency at reducing bacteria on the skin via a chlorine equivalence test. Samples were prepared of Staphylococcus aureus ATCC 6538 (7.6×10^8 colony forming units per mL of text mixture) and Salmonella typhi ATCC 6539 (1.2×10^8 colony forming units per mL of text mixture). The samples were then treated against a NaOCl control at 200 ppm, 100 ppm, and 50 ppm, as well as the sanitizer disclosed herein. Thereafter, ten subculture series were taken.

[2] = system: Staphylococcus aureus ATCC 6538; test: Chlorine equivalence test; assay type: cell-based; parameters: key to growth of organism, Subculture Series 8 / growth of organism, Subculture Series 9 / growth of organism, Subculture Series 10 / growth of organism, Subculture Series 1 / growth of organism, Subculture Series 2 / growth of organism, Subculture Series 3 / growth of organism, Subculture Series 4 / growth of organism, Subculture Series 5 / growth of organism, Subculture Series 6 / growth of organism, Subculture Series 7: growth of organism (+); no growth of organism (0); conditions: for growth of organism, Subculture Series 1 / growth of organism, Subculture Series 2 / growth of organism, Subculture Series 3 / growth of organism, Subculture Series 4 / growth of organism, Subculture Series 5 / growth of organism, Subculture Series 6 / growth of organism, Subculture Series 7 / growth of organism, Subculture Series 8 / growth of organism, Subculture Series 9 / growth of organism, Subculture Series 10: Staphylococcus aureus
Procedure: as §1

SMILES: [Na+].[O-]Cl [NaOCl]
- growth of organisms over the ten subculture series ([1]; Salmonella typhi ATCC 6539, NaOCl control at 200 ppm, 100 ppm, and 50 ppm, ten subculture series): eventually showed growth of organisms
- growth of organism, Subculture Series 1 ([1]; concentration 50 ppm): 0
- growth of organism, Subculture Series 2 ([1]; concentration 50 ppm): 0
- growth of organism, Subculture Series 3 ([1]; concentration 50 ppm): +
- growth of organism, Subculture Series 4 ([1]; concentration 50 ppm): +
- growth of organism, Subculture Series 5 ([1]; concentration 50 ppm): +
- growth of organism, Subculture Series 6 ([1]; concentration 50 ppm): +
- growth of organism, Subculture Series 7 ([1]; concentration 50 ppm): +
- growth of organism, Subculture Series 8 ([1]; concentration 50 ppm): +
- growth of organism, Subculture Series 9 ([1]; concentration 50 ppm): +
- growth of organism, Subculture Series 10 ([1]; concentration 50 ppm): +
- growth of organism, Subculture Series 1 ([1]; concentration 100 ppm): 0
- growth of organism, Subculture Series 2 ([1]; concentration 100 ppm): 0
- growth of organism, Subculture Series 3 ([1]; concentration 100 ppm): 0
- growth of organism, Subculture Series 4 ([1]; concentration 100 ppm): +
- growth of organism, Subculture Series 5 ([1]; concentration 100 ppm): +
- growth of organism, Subculture Series 6 ([1]; concentration 100 ppm): +
- growth of organism, Subculture Series 7 ([1]; concentration 100 ppm): +
- growth of organism, Subculture Series 8 ([1]; concentration 100 ppm): +
- growth of organism, Subculture Series 9 ([1]; concentration 100 ppm): +
- growth of organism, Subculture Series 10 ([1]; concentration 100 ppm): +
- growth of organism, Subculture Series 1 ([1]; concentration 200 ppm): 0
- growth of organism, Subculture Series 2 ([1]; concentration 200 ppm): 0
- growth of organism, Subculture Series 3 ([1]; concentration 200 ppm): 0
- growth of organism, Subculture Series 4 ([1]; concentration 200 ppm): 0
- growth of organism, Subculture Series 5 ([1]; concentration 200 ppm): 0
- growth of organism, Subculture Series 6 ([1]; concentration 200 ppm): 0
- growth of organism, Subculture Series 7 ([1]; concentration 200 ppm): +
- growth of organism, Subculture Series 8 ([1]; concentration 200 ppm): +
- growth of organism, Subculture Series 9 ([1]; concentration 200 ppm): +
- growth of organism, Subculture Series 10 ([1]; concentration 200 ppm): +
- growth of organisms over the ten subculture series ([2]; Staphylococcus aureus ATCC 6538, NaOCl control at 200 ppm, 100 ppm, and 50 ppm, ten subculture series): eventually showed growth of organisms
- growth of organism, Subculture Series 1 ([2]; concentration 50 ppm): 0
- growth of organism, Subculture Series 2 ([2]; concentration 50 ppm): +
- growth of organism, Subculture Series 3 ([2]; concentration 50 ppm): +
- growth of organism, Subculture Series 4 ([2]; concentration 50 ppm): +
- growth of organism, Subculture Series 5 ([2]; concentration 50 ppm): +
- growth of organism, Subculture Series 6 ([2]; concentration 50 ppm): +
- growth of organism, Subculture Series 7 ([2]; concentration 50 ppm): +
- growth of organism, Subculture Series 8 ([2]; concentration 50 ppm): +
- growth of organism, Subculture Series 9 ([2]; concentration 50 ppm): +
- growth of organism, Subculture Series 10 ([2]; concentration 50 ppm): +
- growth of organism, Subculture Series 1 ([2]; concentration 100 ppm): 0
- growth of organism, Subculture Series 2 ([2]; concentration 100 ppm): 0
- growth of organism, Subculture Series 3 ([2]; concentration 100 ppm): +
- growth of organism, Subculture Series 4 ([2]; concentration 100 ppm): +
- growth of organism, Subculture Series 5 ([2]; concentration 100 ppm): +
- growth of organism, Subculture Series 6 ([2]; concentration 100 ppm): +
- growth of organism, Subculture Series 7 ([2]; concentration 100 ppm): +
- growth of organism, Subculture Series 8 ([2]; concentration 100 ppm): +
- growth of organism, Subculture Series 9 ([2]; concentration 100 ppm): +
- growth of organism, Subculture Series 10 ([2]; concentration 100 ppm): +
- growth of organism, Subculture Series 1 ([2]; concentration 200 pm): 0
- growth of organism, Subculture Series 3 ([2]; concentration 200 pm): 0
- growth of organism, Subculture Series 8 ([2]; concentration 200 pm): +
- growth of organism, Subculture Series 10 ([2]; concentration 200 pm): +
- growth of organism, Subculture Series 2 ([2]; concentration 200 ppm): 0
- growth of organism, Subculture Series 4 ([2]; concentration 200 ppm): 0
- growth of organism, Subculture Series 5 ([2]; concentration 200 ppm): 0
- growth of organism, Subculture Series 6 ([2]; concentration 200 ppm): +
- growth of organism, Subculture Series 7 ([2]; concentration 200 ppm): +
- growth of organism, Subculture Series 9 ([2]; concentration 200 ppm): +
